Data published in PMC3914206.

What was measured:
panel of 442 kinases [1] = molecular target: T1, panel of 442 kinases (Homo sapiens, UniProt P36888, R834Q); format: binding; conditions: Compound Concentration 10 µM
T1 construct: purchased KINOMEscan
T1 sequence (P36888 27-993 R834Q): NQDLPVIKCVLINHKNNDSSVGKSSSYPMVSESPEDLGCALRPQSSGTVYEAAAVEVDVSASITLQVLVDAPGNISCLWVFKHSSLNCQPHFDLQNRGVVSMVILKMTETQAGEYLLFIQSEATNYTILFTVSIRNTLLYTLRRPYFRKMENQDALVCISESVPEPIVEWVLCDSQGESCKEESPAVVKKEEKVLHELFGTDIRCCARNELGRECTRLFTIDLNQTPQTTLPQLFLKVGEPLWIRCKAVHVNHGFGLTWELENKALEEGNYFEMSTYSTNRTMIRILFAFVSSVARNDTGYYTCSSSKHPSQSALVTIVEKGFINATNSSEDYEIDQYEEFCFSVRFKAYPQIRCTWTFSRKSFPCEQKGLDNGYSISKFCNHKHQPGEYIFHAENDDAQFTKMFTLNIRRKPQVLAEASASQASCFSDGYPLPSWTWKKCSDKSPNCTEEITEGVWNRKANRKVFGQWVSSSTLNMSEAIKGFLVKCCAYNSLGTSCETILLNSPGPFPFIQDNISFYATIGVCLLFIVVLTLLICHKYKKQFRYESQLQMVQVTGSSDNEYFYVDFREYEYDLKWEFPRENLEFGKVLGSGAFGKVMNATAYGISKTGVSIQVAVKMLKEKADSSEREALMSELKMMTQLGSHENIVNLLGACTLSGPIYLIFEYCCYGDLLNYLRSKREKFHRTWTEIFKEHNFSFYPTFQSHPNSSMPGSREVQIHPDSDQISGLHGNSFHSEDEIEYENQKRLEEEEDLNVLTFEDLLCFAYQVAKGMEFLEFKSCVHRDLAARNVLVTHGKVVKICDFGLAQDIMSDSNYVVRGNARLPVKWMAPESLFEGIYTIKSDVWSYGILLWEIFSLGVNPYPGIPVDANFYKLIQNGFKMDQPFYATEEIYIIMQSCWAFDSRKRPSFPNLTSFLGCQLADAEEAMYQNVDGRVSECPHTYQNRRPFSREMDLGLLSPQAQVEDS
Text: (§1) We assessed the selectivity of members of this scaffold using the KINOMEscan methodology across a near comprehensive panel of 442 kinases [[18,27]].

panel of 442 kinases [2] = molecular target: T2, panel of 442 kinases (Homo sapiens, UniProt Q13470); format: binding; conditions: kinase TNK1; compound concentration 10 µM
T2 construct: purchased KINOMEscan
T2 sequence (Q13470 1-666): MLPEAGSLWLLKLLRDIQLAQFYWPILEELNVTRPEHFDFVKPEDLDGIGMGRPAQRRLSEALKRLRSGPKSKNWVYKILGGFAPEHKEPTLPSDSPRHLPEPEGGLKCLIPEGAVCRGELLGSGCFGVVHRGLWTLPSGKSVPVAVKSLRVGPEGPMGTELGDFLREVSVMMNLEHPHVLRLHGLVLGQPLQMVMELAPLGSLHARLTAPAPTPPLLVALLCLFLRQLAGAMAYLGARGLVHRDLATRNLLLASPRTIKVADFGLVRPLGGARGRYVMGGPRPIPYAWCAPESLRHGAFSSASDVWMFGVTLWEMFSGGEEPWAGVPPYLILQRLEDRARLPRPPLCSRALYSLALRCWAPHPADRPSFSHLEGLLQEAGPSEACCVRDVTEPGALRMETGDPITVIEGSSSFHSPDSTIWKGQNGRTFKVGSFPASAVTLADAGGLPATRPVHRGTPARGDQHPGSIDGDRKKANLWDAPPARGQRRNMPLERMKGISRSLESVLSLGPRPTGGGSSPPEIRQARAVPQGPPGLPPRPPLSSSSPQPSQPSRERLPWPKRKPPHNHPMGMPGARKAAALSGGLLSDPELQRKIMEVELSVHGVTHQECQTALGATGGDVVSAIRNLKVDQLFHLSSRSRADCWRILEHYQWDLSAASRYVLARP
Text: as §1

COc1cc(C(=O)N2CCC(N3CCN(C)CC3)CC2)ccc1Nc1ncc2c(n1)N(C)c1ccccc1C(=O)N2C [15 (LRRK2-IN-1)]
KINOMEscan: FLT3(R834Q) (panel of 442 kinases [1]): 100 | % Ctrl, TNK1 (panel of 442 kinases [2]): 2.8 % Ctrl

COc1cc(C(=O)N2CCC(N3CCN(C)CC3)CC2)ccc1Nc1ncc2c(n1)N1CCc3cccc(c31)C(=O)N2C [Compound 24]
KINOMEscan: FLT3(R834Q) (panel of 442 kinases [1]): 100 | % Ctrl, TNK1 (panel of 442 kinases [2]): 5 % Ctrl

COc1cc(C(=O)N2CCC(N3CCN(C)CC3)CC2)ccc1Nc1ncc2c(n1)N(C1CCCC1)c1ccccc1C(=O)N2C [Compound 25, 11-cyclopentyl-2-((2-methoxy-4-(4-(4-methylpiperazin-1-yl)piperidine-1-carbonyl)phenyl)amino)-5-methyl-5H-benzo[e]pyrimido[5,4-b][1,4]diazepin-6(11H)-one]
KINOMEscan: FLT3(R834Q) (panel of 442 kinases [1]): 100 | % Ctrl, TNK1 (panel of 442 kinases [2]): 7.8 % Ctrl

CCOc1cc(C(=O)N2CCC(N3CCN(C)CC3)CC2)ccc1Nc1ncc2c(n1)N(C1CCCC1)c1ccccc1C(=O)N2C [Compound 26]
KINOMEscan: FLT3(R834Q) (panel of 442 kinases [1]): 100 | % Ctrl, TNK1 (panel of 442 kinases [2]): 53 % Ctrl
